Source: ChEMBL document CHEMBL1125472, “5-lipoxygenase: properties, pharmacology, and the quinolinyl(bridged)aryl class of inhibitors” (J Med Chem, 1992)

Tests used:
Homo sapiens [1] = organism: Homo sapiens; test: The compound was tested for inhibitory activity against 5-Lipoxygenase in human polymorphonuclear leukocytes[PMNS]; format: functional
[2] = target: T1, Polyunsaturated fatty acid 5-lipoxygenase (Homo sapiens, UniProt P09917); test: The compound was tested for inhibitory activity against LT synthesis in human polymorphonuclear leukocytes[PMNS]; format: cell-based
T1 sequence (P09917 whole entry): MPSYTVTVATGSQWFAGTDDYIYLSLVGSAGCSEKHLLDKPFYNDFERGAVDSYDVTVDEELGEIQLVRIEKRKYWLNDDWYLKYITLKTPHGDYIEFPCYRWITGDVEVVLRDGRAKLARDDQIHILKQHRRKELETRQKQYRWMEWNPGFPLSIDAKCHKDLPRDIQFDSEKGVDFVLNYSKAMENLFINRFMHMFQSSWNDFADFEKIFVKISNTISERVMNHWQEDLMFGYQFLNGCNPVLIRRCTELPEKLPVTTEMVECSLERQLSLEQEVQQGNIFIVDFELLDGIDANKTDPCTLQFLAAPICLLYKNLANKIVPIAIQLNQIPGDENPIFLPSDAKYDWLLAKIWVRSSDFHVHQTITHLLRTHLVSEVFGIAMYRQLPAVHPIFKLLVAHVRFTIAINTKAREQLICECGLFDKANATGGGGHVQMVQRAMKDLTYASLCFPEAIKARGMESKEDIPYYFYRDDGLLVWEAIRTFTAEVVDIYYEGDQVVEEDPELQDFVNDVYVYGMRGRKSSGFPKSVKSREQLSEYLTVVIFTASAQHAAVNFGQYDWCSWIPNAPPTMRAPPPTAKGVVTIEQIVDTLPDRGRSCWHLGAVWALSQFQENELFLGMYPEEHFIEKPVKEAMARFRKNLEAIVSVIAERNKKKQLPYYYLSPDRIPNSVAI

[3] = target: T2, Leukotriene C4 synthase (Rattus norvegicus) (UniProt Q925U2); test: The compound was tested for inhibition LTC4 synthase from whole cells in rat
T2 sequence (whole entry): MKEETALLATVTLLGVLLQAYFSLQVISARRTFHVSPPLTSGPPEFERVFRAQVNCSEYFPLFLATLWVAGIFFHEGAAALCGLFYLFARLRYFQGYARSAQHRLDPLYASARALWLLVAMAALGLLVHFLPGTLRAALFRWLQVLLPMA

Homo sapiens [4] = organism: Homo sapiens; test: The compound was tested for inhibitory activity against Leukotriene synthesis in human monocytes; format: functional
[5] = target: T3, Polyunsaturated fatty acid 5-lipoxygenase (Rattus norvegicus) (UniProt P12527); test: The compound was tested for inhibition of 5-lipoxygenase translocation in SAR in rat RBL-2H3 cells; format: functional, cell-based
T3 sequence (whole entry): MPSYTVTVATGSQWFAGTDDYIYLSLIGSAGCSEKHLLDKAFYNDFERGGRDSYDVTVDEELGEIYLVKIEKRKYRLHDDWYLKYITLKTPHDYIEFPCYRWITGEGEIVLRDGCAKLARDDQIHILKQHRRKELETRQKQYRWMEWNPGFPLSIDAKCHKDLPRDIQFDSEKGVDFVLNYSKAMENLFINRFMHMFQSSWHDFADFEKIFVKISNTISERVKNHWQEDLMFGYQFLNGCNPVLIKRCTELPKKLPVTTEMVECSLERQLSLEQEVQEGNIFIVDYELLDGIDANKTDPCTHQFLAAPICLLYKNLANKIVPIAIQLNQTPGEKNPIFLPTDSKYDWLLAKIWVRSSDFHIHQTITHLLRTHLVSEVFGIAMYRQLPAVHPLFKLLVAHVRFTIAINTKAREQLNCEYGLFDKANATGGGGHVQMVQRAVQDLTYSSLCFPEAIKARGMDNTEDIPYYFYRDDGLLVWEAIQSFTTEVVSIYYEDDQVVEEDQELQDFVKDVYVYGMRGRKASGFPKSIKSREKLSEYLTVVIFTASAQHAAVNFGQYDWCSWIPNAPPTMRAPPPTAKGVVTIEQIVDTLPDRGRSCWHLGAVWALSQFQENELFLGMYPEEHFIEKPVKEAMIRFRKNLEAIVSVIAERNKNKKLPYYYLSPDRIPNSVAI

[6] = target: T4, Polyunsaturated fatty acid 5-lipoxygenase (Rattus norvegicus, UniProt P12527); test: The compound was tested for inhibitory activity against 5-lipoxygenase translocation inhibitor in rat RBL-2H3 cells; format: functional, cell-based
T4 sequence (P12527 whole entry): T3 sequence (whole entry)

[7] = target: T3, Polyunsaturated fatty acid 5-lipoxygenase (Rattus norvegicus); test: The compound was tested for inhibition of isolated 5-lipoxygenase
Cavia porcellus [8] = organism: Cavia porcellus; test: The effective dose for inhibition of LTD4-induced contractions of guinea pig trachea; format: functional
[9] = target: T4, Polyunsaturated fatty acid 5-lipoxygenase; test: The compound was tested for inhibitory activity against 5-lipoxygenase in rat polymorphonuclear leukocytes[PMNS]; format: cell-based
Cyclooxygenase [10] = target: T5, Cyclooxygenase (Rattus norvegicus, UniProt P35355+Q63921); test: The compound was tested for inhibitory activity against Prostaglandin G/H synthase in rat polymorphonuclear leukocytes[PMNS]; format: cell-based
T5 sequence (P35355 whole entry): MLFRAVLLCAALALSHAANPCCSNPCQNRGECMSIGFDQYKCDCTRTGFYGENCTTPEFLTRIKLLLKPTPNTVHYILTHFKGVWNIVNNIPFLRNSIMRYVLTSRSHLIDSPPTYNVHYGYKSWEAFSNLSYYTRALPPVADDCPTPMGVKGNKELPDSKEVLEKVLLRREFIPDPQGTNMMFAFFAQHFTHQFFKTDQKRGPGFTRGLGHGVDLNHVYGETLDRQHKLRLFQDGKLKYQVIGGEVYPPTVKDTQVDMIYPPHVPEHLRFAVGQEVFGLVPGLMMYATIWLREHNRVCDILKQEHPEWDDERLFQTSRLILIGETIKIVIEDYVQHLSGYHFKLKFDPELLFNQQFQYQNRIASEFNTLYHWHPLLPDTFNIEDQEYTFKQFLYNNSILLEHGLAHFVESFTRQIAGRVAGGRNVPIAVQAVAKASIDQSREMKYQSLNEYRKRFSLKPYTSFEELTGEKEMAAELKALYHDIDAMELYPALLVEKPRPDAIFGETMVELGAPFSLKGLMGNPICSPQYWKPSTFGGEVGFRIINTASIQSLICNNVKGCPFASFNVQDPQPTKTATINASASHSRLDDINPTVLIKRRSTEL
T5 sequence (Q63921 whole entry): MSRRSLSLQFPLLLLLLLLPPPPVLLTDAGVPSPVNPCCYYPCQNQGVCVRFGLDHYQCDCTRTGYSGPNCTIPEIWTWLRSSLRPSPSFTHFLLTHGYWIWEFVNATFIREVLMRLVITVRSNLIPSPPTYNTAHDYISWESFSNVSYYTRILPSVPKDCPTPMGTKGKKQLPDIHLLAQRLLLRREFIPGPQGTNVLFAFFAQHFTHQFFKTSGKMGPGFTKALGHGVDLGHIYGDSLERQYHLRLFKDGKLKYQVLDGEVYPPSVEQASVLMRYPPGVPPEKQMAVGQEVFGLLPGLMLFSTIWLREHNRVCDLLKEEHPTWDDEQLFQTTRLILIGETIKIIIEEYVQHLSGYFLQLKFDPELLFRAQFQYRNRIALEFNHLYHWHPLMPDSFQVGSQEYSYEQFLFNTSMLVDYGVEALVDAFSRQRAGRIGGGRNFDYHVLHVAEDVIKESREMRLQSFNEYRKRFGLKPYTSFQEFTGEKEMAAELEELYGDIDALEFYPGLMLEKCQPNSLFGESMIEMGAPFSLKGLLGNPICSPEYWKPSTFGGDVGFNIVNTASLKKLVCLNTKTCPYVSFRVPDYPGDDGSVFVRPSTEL

[11] = target: T1, Polyunsaturated fatty acid 5-lipoxygenase
RBL-2H3 [12] = test: The compound was tested for inhibition of translocation in SAR in RBL-2H3 cells; format: functional, Rattus norvegicus
RBL-2H3 [13] = test: The compound was tested for inhibition LTC4 synthesis; format: functional, Rattus norvegicus
[14] = target: T3, Polyunsaturated fatty acid 5-lipoxygenase (Rattus norvegicus); test: The compound was tested for inhibition of isolated 5-Lipoxygenase
[15] = The effective dose for inhibition of LTD4-induced wheal formation after oral administration; format: functional
[16] = Compound was tested for spasmogenic activity of LTD4 on lung strips; format: functional
Rattus norvegicus = organism: Rattus norvegicus; test: The compound was tested for inhibition of [3H]LTD4 binding to lung membrane; format: functional
[17] = Compound was tested for spasmogenic activity of LTC4 on lung strips; format: functional
[18] = Compound was tested for spasmogenic activity of LTE4 on lung strips; format: functional
[19] = The effective dose for inhibition of anaphylactic death after oral administration; format: functional
Cavia porcellus [20] = test: The compound was tested for inhibition of LTD4 response in guinea pig bronchoconstriction assay after intraduodenal administration (30 mg/kg)
Cavia porcellus [21] = organism: Cavia porcellus; test: The compound was tested for binding affinity against guinea pig lung membrane using [3H]LTD4 as radioligand
[22] = target: T4, Polyunsaturated fatty acid 5-lipoxygenase; test: The compound was tested for inhibitory activity against 5-Lipoxygenase in rat RBL-1; format: cell-based
[23] = target: T3, Polyunsaturated fatty acid 5-lipoxygenase (Rattus norvegicus); test: The compound was tested for inhibition against 5-lipoxygenase in rat polymorphonuclear leukocytes[PMNS] at 10 uM concentration; format: cell-based
Cavia porcellus [24] = organism: Cavia porcellus; test: The compound was tested for inhibition of LTD4-induced bronchoconstriction in guinea pig; format: functional
[25] = target: T4, Polyunsaturated fatty acid 5-lipoxygenase; test: The compound was tested for inhibitory activity against 5-lipoxygenase using rat polymorphonuclear leukocytes[PMNS]
Cavia porcellus [26] = organism: Cavia porcellus; test: The compound was tested for inhibitory activity against LTD4-induced contractions of guinea pig ileum; format: functional
[27] = The compound was tested for inhibitory activity against Leukotriene B4 receptor in mouse mastocytoma
[28] = target: T4, Polyunsaturated fatty acid 5-lipoxygenase; test: The compound was tested for inhibitory activity against 5-Lipoxygenase in rat polymorphonuclear leukocytes[PMNS]; format: cell-based
[29] = target: Cyclooxygenase (Rattus norvegicus) (UniProt P35355+Q63921); test: The compound was tested for inhibition against Prostaglandin G/H synthase in rat polymorphonuclear leukocytes[PMNS] at 10 uM concentration; format: cell-based
[30] = target: T3, Polyunsaturated fatty acid 5-lipoxygenase (Rattus norvegicus); test: The compound was tested for inhibition against 5-Lipoxygenase in rat polymorphonuclear leukocytes at 10 uM concentration; format: cell-based
Cyclooxygenase [31] = target: Cyclooxygenase (Homo sapiens, UniProt P35354+P23219); test: The compound was tested for inhibitory activity against Prostaglandin G/H synthase in human polymorphonuclear leukocytes[PMNS]; format: cell-based

CC(C)c1ccc2c(c1)c(SC(C)(C)C)c(CC(C)(C)C(=O)O)n2Cc1ccc(Cl)cc1
IC50 (Homo sapiens [1]): 2.5 nM
IC50 [2]: 60 nM
Inhibition [3]: 3 nM
IC50 (Homo sapiens [4]): 50 nM
Inhibition [5]: 35 nM
IC50 [6]: 5 nM
Inhibition [7]: > 20 µM

c1cc(Cc2nnn[nH]2)cc(OCc2ccc3ccccc3n2)c1
ED50 (Cavia porcellus [8]): 0.4 mg/kg
IC50 [9]: 6200 nM
IC50 (Cyclooxygenase [10]): 13400 nM

O=C(CCCCCCCCc1ccccc1)NO
IC50 [11]: 6000 nM

COc1ccc2cc([C@H](C)C(=O)O)ccc2c1 [NAPROXEN]
Inhibition (RBL-2H3 [12]): >10 µM
Inhibition (RBL-2H3 [13]): >10 µM
Inhibition [14]: > 20 µM

c1ccc(Cc2nn[nH]n2)c(COc2ccc(OCc3ccc4ccccc4n3)cc2)c1 [RG-12525]
ED50 [15]: 5 mg/kg
Kb [16]: 2.7 nM
Ki (Rattus norvegicus): 3 nM
Kb [17]: 2.7 nM
Kb [18]: 2.7 nM
ED50 [19]: 2.2 mg/kg

CCCCCC(O)c1cccc(OCc2ccc3ccccc3n2)c1 (stereo unspecified) [REV-5901]
Inhibition (Cavia porcellus [20]): 74%
Ki (Cavia porcellus [21]): 700 nM

COc1c(OC)c(OC(C)=O)c2cc(Cl)ccc2c1OC(C)=O [LONAPALENE]
IC50 [22]: 500 nM

O=C(O)Cc1ccc(-c2ccc(OCc3ccc4ccccc4n3)cc2)c(F)c1
Inhibition [23]: 100%

CCN(CC)C(=O)N(C)C[C@H](O)c1cccc(OCc2ccc3ccccc3n2)c1
IC50 [9]: 2000 nM

CCCc1c(OCC(O)COc2cccc(NC(=O)C(=O)OCC)c2C#N)ccc(C(C)=O)c1O (stereo unspecified)
IC50 [9]: 32000 nM

Oc1ccccc1OCc1ccc2ccccc2n1
Inhibition (Cavia porcellus [24]): 28%
IC50 (Cyclooxygenase [10]): 5820 nM
IC50 [25]: 53000 nM

O=C(O)c1ccccc1Nc1cccc(OCc2ccc3ccccc3n2)c1 [SR-2640]
IC50 (Cavia porcellus [26]): 3 nM
IC50 [9]: 10000 nM
IC50 (Cyclooxygenase [10]): 2000 nM

CSc1ccccc1/C=C/C(=O)N(C)O
IC50 [11]: 100 nM

CCOC(=O)Oc1ccc(/C=C/C=C/C(=O)NCCN2CCC(OC(c3ccccc3)c3ccccc3)CC2)cc1OC [LINETASTINE]
IC50 [27]: 320 nM

O=C(O)CCc1nc(-c2ccc(OCc3ccc4ccccc4n3)cc2)c(-c2ccccc2)o1
Inhibition [23]: 96%

Cc1ccc(S(=O)(=O)NC(=O)c2cccc(OCc3ccc4ccccc4n3)c2)cc1
ED50 (Cavia porcellus [8]): 3 mg/kg
IC50 [28]: 3900 nM

CONC(=O)Cc1cccc(OCc2ccc3ccccc3n2)c1
ED50 (Cavia porcellus [8]): 7.9 mg/kg

COc1ccc(-n2nc(CCC(=O)N(C)O)cc2-c2ccc(Cl)cc2)cc1 [TEPOXALIN]
IC50 [22]: 150 nM

CC(c1ccoc1)N(O)C(N)=O (stereo unspecified)
IC50 [22]: 11000 nM

CCc1cc(OCc2ccc3ccccc3n2)cc2c3c([nH]c12)C(CC)(CC(=O)O)OCC3 (stereo unspecified)
Inhibition [29]: 47%
Inhibition [23]: 91%

CCCCC[C@H](O)c1cccc(OCc2cccc(CC(=O)O)c2)c1
IC50 [9]: 2500 nM

CC(C(=O)O)c1ccc2c3cc(OCc4ccc5ccccc5n4)ccc3n(Cc3ccc4ccccc4n3)c2c1 (stereo unspecified)
Inhibition [30]: 92%

CC(C)(C)CC(=O)c1c(CC(C)(C)C(=O)O)n(Cc2ccc(Cl)cc2)c2ccc(OCc3ccc4ccccc4n3)cc12
IC50 (Cyclooxygenase [31]): 2 nM

CC(C)(C)c1cc(-c2cn3ncc(=O)nc3s2)cc(C(C)(C)C)c1O
IC50 (Cyclooxygenase [31]): 25000 nM
